In patent publication US8497249B1, “Fungicidal properties of three saponins from Capsicum frutescens” (The United States of America, as represented by the …, priority 2008, dated 2013):

Assays:
Aspergillus flavus = test: Conidial viability bioassay (30 min incubation, colony enumeration); format: cell-based; design: key to Lowest concentration showing significant (p < 0.001) viability reduction: CAY-1 Control / Total Weight of mixture: —: No viability reduction observed; conditions: for Lowest concentration showing significant (p < 0.001) viability reduction: CAY-1 Control / Total Weight of mixture: 30 min incubation; for Reduction of conidial viability / fungicidal activity (in words): FIG. 2A
Procedure: (§1) Bioassays were performed as described earlier (De Lucca et al. 2002, 2006b, supra). The test fungi (Aspergillus flavus, A. niger, A. fumigatus, Fusarium oxysporum, F. solani, and F. verticilioides (formerly F. moniliforme) were grown on potato dextrose agar (Difco, Detroit, Mich.) slants for seven days (30° C.). When needed, conidia were suspended in 1% potato dextrose broth (Difco, Detroit, Mich.), pH 5.2 (PDB). Using a hemocytometer, stock suspension concentrations were determined and final (working) concentrations of 3×10^4 conidia/ml were prepared. Following preparation of the conidia, a sample of nongerminated conidia was immediately used in the bioassay to determine the effect of the saponins on nongerminated conidia. An additional conidial sample for each fungus was incubated for 8 hr at 30° C. These conidia were used in bioassays to determine activity of the saponins against germinating conidia.
(§2) Individual bioassays consisted of conidia (25 μl), PDB, and the appropriate amount of a mixture of CAY-1, 1081 and 919. The CAY-1 control (CAY-1 alone) bioassays measuring the fungicidal response against the same fungi were performed in a similar manner. Final test volumes were 250 μl. Controls consisted of conidia and PDB medium.
(§3) After a 30 min incubation period (30° C.), aliquots (50 μl) of each sample were spread on each of four potato dextrose agar plates. The plates were incubated for 48 hours at 30° C., followed by colony enumeration. Three separate runs per conidial type and fungus were performed (n=12).
(§4) Statistical analyses were performed on the data using SigmaStat 3.1 (Systat, Point Richmond, Calif.). Significance (p<0.001) was determined between viability control and test saponin data.

A. fumigatus = test: as above; format: cell-based, Aspergillus fumigatus; design: key: —: No viability reduction observed
Procedure: as §1
(§5) Individual bioassays consisted of conidia (25 μl), PDB, and the appropriate amount of a mixture of CAY-1, 1081 and 919. The CAY-1 control (CAY-1 alone) bioassays measuring the fungicidal response against the same fungi were performed in a similar manner. Final test volumes were 250 μl. […]
as §4

A. niger = test: as above; format: cell-based, Aspergillus niger; design: key to Lowest concentration showing significant (p < 0.001) viability reduction: CAY-1 Control / Total Weight of mixture: —: No viability reduction observed; conditions: for Lowest concentration showing significant (p < 0.001) viability reduction: CAY-1 Control / Total Weight of mixture: 30 min incubation; for Reduction of conidial viability / fungicidal activity (in words): FIG. 2C
Procedure: as §1, §2, §3, §4

Fusarium oxysporum = test: as above; format: cell-based; design: key: —: No viability reduction observed
Procedure: as §1, §5, §4

F. solani = test: as above; format: cell-based, Fusarium solani; design: key to Lowest concentration showing significant (p < 0.001) viability reduction: CAY-1 Control / Total Weight of mixture: —: No viability reduction observed; conditions: for Lowest concentration showing significant (p < 0.001) viability reduction: CAY-1 Control / Total Weight of mixture: 30 min incubation; for Reduction of conidial viability / fungicidal activity (in words): FIG. 2F
Procedure: as §1, §2, §3, §4

[1] = system: F. verticilioides (formerly F. moniliforme); test: as above; format: cell-based, Fusarium verticilioides; design: key to Lowest concentration showing significant (p < 0.001) viability reduction: CAY-1 Control / Total Weight of mixture: —: No viability reduction observed; conditions: for Lowest concentration showing significant (p < 0.001) viability reduction: CAY-1 Control / Total Weight of mixture: 30 min incubation
Procedure: as §1, §2, §3, §4

[2] = system: germinating conidia of A. flavus; test: Time of fungicidal activity (time course study); format: cell-based, Aspergillus flavus; conditions: after 5 minutes of incubation; total weight 12.67 μg/ml (4:3:3: 12.64 μg/ml)
Procedure: as §1, with “Detroit, Mich.) […] for seven” for “Detroit, Mich.) slants for seven”, “germinating conidia. Individual bioassays consisted of conidia (25 μl), PDB, and the appropriate amount of a mixture of CAY-1, 1081 and 919. The CAY-1 control (CAY-1 alone) bioassays measuring the fungicidal response against the same fungi were performed in a similar manner. Final test volumes were 250 μl. […] Time of fungicidal activity for the saponin mixtures was determined by using the germinating conidia of A. flavus. […] Significance (p<0.001) was determined between viability control and test saponin data.” for “germinating conidia.”

Fusarium species = test: Conidial viability bioassays, Fusarium species; format: cell-based; conditions: nongerminated conidia of the tested Fusarium isolates
Procedure: as §1, §2
After a 30 min incubation period (30° C.), aliquots (50 μl) of each sample were spread on each of four potato dextrose agar plates. […]

[3] = system: germinating conidia of A. flavus; conditions: within five minutes of the initiation of incubation; De Lucca et al., 2002; cited from earlier work
[4] = system: fungi of agricultural and medical importance; conditions: pure saponin; De Lucca et al. 2002, 2006b and others; cited from earlier work
[5] = system: Aspergillus flavus, A. fumigatus and A. niger; conditions: in vitro; De Lucca et al. 2006a; cited from earlier work
[6] = germinating conidia, listed as CAY-1 control
[7] = germinating conidia, listed as CAY-1 controls

CC1CCC2(OC1)OC1CC3C4CCC5CC(OC6OC(CO)C(OC7OC(CO)C(O)C(OC8OC(CO)C(O)C(OC9OC(CO)C(O)C(O)C9O)C8O)C7OC7OC(CO)C(O)C(O)C7O)C(O)C6O)C(O)CC5(C)C4CCC3(C)C1C2C (stereo not shown) [CAY-1]
Lowest concentration showing significant (p < 0.001) viability reduction: CAY-1 Control / Total Weight of mixture (Aspergillus flavus; germinating conidia): 4.97 µg/mL | Reduction of conidial viability / fungicidal activity (in words) (Aspergillus flavus; [6]): significantly (p<0.001) lower viability counts | Reduction of conidial viability / fungicidal activity (in words) (Aspergillus flavus; [7]): significant viability loss | Lowest concentration showing significant (p < 0.001) viability reduction: CAY-1 Control / Total Weight of mixture (Aspergillus flavus; nongerminated conidia): —^# | Lowest concentration showing significant (p < 0.001) viability reduction: CAY-1 Control / Total Weight of mixture (A. fumigatus; germinating conidia): — | Lowest concentration showing significant (p < 0.001) viability reduction: CAY-1 Control / Total Weight of mixture (A. fumigatus; nongerminated conidia): — | Lowest concentration showing significant (p < 0.001) viability reduction: CAY-1 Control / Total Weight of mixture (A. niger; germinating conidia): 6.62 µg/mL | Reduction of conidial viability / fungicidal activity (in words) (A. niger; germinating conidia): No major differences | Reduction of conidial viability / fungicidal activity (in words) (A. niger; [6]): significantly (p<0.001) lower viability counts | Reduction of conidial viability / fungicidal activity (in words) (A. niger; [7]): significant viability loss | Lowest concentration showing significant (p < 0.001) viability reduction: CAY-1 Control / Total Weight of mixture (A. niger; nongerminated conidia): — | Lowest concentration showing significant (p < 0.001) viability reduction: CAY-1 Control / Total Weight of mixture (Fusarium oxysporum; germinating conidia): — | Lowest concentration showing significant (p < 0.001) viability reduction: CAY-1 Control / Total Weight of mixture (Fusarium oxysporum; nongerminated conidia): — | Lowest concentration showing significant (p < 0.001) viability reduction: CAY-1 Control / Total Weight of mixture (F. solani; germinating conidia): 12.43 µg/mL | Reduction of conidial viability / fungicidal activity (in words) (F. solani; germinating conidia): significantly fungicidal | Reduction of conidial viability / fungicidal activity (in words) (F. solani; [7]): significant viability loss | Lowest concentration showing significant (p < 0.001) viability reduction: CAY-1 Control / Total Weight of mixture (F. solani; nongerminated conidia): — | Lowest concentration showing significant (p < 0.001) viability reduction: CAY-1 Control / Total Weight of mixture ([1]; germinating conidia): — | Reduction of conidial viability / fungicidal activity (in words) ([1]; germinating conidia, FIG. 2D): inactive | Lowest concentration showing significant (p < 0.001) viability reduction: CAY-1 Control / Total Weight of mixture ([1]; nongerminated conidia): — | Activity (in words) [2]: inactive | Reduction of conidial viability (in words) (Fusarium species): not reduced | Dose producing significant lethality [3]: 12.4 µg/mL | Antifungal properties (in words) [4]: potent fungicidal properties | Interaction with Amphotericin B and intraconazole [5]: additive synergy
